Experimental data: the supplement of paper PMC10307832

Experiments:
Assay in all cases: relative viability (nuclei count vs DMSO), 5 days (fraction); higher = more cells survive
Zebularine + Navitoclax = compound: O=c1ncccn1[C@@H]1O[C@H](CO)[C@@H](O)[C@H]1O [Zebularine] + CC1(C)CCC(c2ccc(Cl)cc2)=C(CN2CCN(c3ccc(C(=O)NS(=O)(=O)c4ccc(N[C@H](CCN5CCOCC5)CSc5ccccc5)c(S(=O)(=O)C(F)(F)F)c4)cc3)CC2)C1 [Navitoclax] (partner 0.5 µM)
Procedure, shortened: (§1)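 Relative viability is defined as nuclei in treated wells over nuclei in vehicle wells. Duplicate plates were run and medians reported. Lung cancer cell lines in 1536-well plates were dosed by pin tool one day after seeding, with one drug or with a fixed anchor-drug dose plus five library-drug doses (not always all listed) in √10 steps, and nuclei were counted after 5 days.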

Zebularine + Linsitinib = compound: O=c1ncccn1[C@@H]1O[C@H](CO)[C@@H](O)[C@H]1O [Zebularine] + C[C@]1(O)C[C@@H](c2nc(-c3ccc4ccc(-c5ccccc5)nc4c3)c3c(N)nccn32)C1 [Linsitinib] (partner 1 µM)
Procedure, shortened: as §1

BI-D1870 + Vorinostat = compound: CC(C)CCN1c2nc(Nc3cc(F)c(O)c(F)c3)ncc2N(C)C(=O)C1C [BI-D1870] + O=C(CCCCCCC(=O)Nc1ccccc1)NO [Vorinostat] (partner 1 µM)
Procedure, shortened: as §1

BI-D1870 + OSI-027 = compound: CC(C)CCN1c2nc(Nc3cc(F)c(O)c(F)c3)ncc2N(C)C(=O)C1C [BI-D1870] + COc1cccc2cc(-c3nc([C@H]4CC[C@H](C(=O)O)CC4)n4ncnc(N)c34)[nH]c12 [OSI-027] (partner 0.5 µM)
Procedure, shortened: as §1

Cell Line | relative viability (Zebularine + Navitoclax; first compound 1 µM) | relative viability (Zebularine + Navitoclax; first compound 3.162 µM) | relative viability (Zebularine + Navitoclax; first compound 10 µM) | relative viability (Zebularine + Navitoclax; first compound 31.62 µM) | relative viability (Zebularine + Navitoclax; first compound 100 µM) | relative viability (Zebularine + Linsitinib; first compound 1 µM) | relative viability (Zebularine + Linsitinib; first compound 3.162 µM) | relative viability (Zebularine + Linsitinib; first compound 10 µM) | relative viability (Zebularine + Linsitinib; first compound 31.62 µM) | relative viability (Zebularine + Linsitinib; first compound 100 µM) | relative viability (BI-D1870 + Vorinostat; first compound 0.04 µM) | relative viability (BI-D1870 + Vorinostat; first compound 0.1265 µM) | relative viability (BI-D1870 + Vorinostat; first compound 0.4 µM) | relative viability (BI-D1870 + Vorinostat; first compound 1.265 µM) | relative viability (BI-D1870 + Vorinostat; first compound 4 µM) | relative viability (BI-D1870 + OSI-027; first compound 0.04 µM) | relative viability (BI-D1870 + OSI-027; first compound 0.1265 µM) | relative viability (BI-D1870 + OSI-027; first compound 0.4 µM) | relative viability (BI-D1870 + OSI-027; first compound 1.265 µM) | relative viability (BI-D1870 + OSI-027; first compound 4 µM)
201T | 1.21 | 1.21 | 0.981 | 1.19 | 1.18 | 1.13 | 1.02 | 1.05 | 1.09 | 1.04 | 1.01 | 0.91 | 0.922 | 0.914 | 0.932 | 0.742 | 0.826 | 0.702 | 0.801 | 0.683
A549 | 1.24 | 1.12 | – | 0.913 | 0.206 | 0.741 | 0.635 | 0.304 | 0.716 | 0.279 | – | – | – | – | – | – | – | – | – | –
A-427 | 0.974 | 0.932 | 0.563 | 0.483 | 0.205 | 1.12 | 1.08 | 0.855 | 0.513 | 0.256 | 0.917 | 0.843 | 0.817 | 0.807 | 0.501 | 0.547 | 0.429 | 0.574 | 0.61 | 0.528
ABC-1 | – | – | – | – | – | 0.678 | 0.713 | 0.572 | 0.544 | 0.481 | 1.2 | 1.01 | 1.07 | 1.2 | 0.535 | 0.669 | 0.406 | 0.416 | 0.501 | 0.319
BEN | 0.0641 | 0.0628 | 0.162 | 0.0748 | 0.0383 | 0.911 | 0.777 | 0.432 | 0.384 | 0.308 | 0.538 | 0.504 | 0.595 | 0.628 | 0.534 | 0.296 | 0.289 | 0.283 | 0.311 | 0.283
CAL-12T | 1.53 | 1.32 | – | 1.28 | 0.918 | 0.819 | 0.794 | 0.716 | 0.896 | 0.464 | 1.07 | 0.675 | 0.716 | 0.666 | 0.352 | 0.593 | 0.449 | 0.477 | 0.599 | 0.303
COR-L23 | 1.02 | 1.15 | 0.323 | 0.558 | 0.218 | 0.977 | 1.05 | 0.448 | 0.493 | 0.211 | 0.615 | 0.402 | 0.494 | 0.5 | 0.269 | 0.883 | 0.722 | 0.707 | 0.823 | 0.577
COR-L 105 | 0.642 | 0.738 | 0.674 | 0.768 | 0.747 | 0.986 | 0.956 | 0.928 | 1.22 | 0.939 | 0.804 | 0.837 | 0.77 | 0.875 | 0.765 | 0.769 | 0.682 | 0.619 | 0.808 | 0.754
Calu-6 | 1.03 | 0.825 | 0.649 | 0.647 | 0.225 | 1.03 | 0.946 | 0.734 | 0.864 | 0.209 | – | – | – | – | – | – | – | – | – | –
ChaGo-K-1 | 1.18 | 0.891 | 0.562 | 0.538 | 0.292 | – | – | – | – | – | 0.8 | 0.703 | 0.711 | 0.72 | 0.641 | 0.652 | 0.55 | 0.547 | 0.559 | 0.538
EBC-1 | 0.398 | 0.353 | 0.376 | 0.337 | 0.37 | 1.1 | 0.975 | 0.979 | 1.21 | 0.854 | – | – | – | – | – | – | – | – | – | –
EKVX | 1.03 | 0.755 | – | 0.947 | 1.03 | 1.16 | 1.01 | – | 1.15 | 0.979 | 0.779 | 0.707 | 0.64 | 0.814 | 0.703 | 0.68 | 0.608 | 0.64 | 0.776 | 0.641
EMC-BAC-2 | 1.35 | 1.15 | 0.683 | 1.28 | 1.3 | 0.899 | 0.886 | 0.637 | 0.879 | 0.839 | 0.495 | 0.519 | 0.397 | 0.461 | 0.413 | 0.46 | 0.37 | 0.351 | 0.422 | 0.334
EPLC-272H | 1.45 | – | – | 1.26 | 0.639 | 1.62 | – | – | 1.05 | 0.746 | 0.523 | 0.663 | 0.484 | 0.297 | 0.148 | 0.263 | 0.218 | 0.272 | 0.278 | 0.204
H3255 | 0.627 | 0.453 | – | 0.36 | 0.409 | 0.979 | 1.05 | – | 0.956 | 1 | 0.88 | 0.816 | 0.761 | 0.889 | 0.802 | 0.627 | 0.51 | 0.548 | 0.682 | 0.539
HARA | 1.14 | 1.13 | – | 1.1 | 0.718 | 1.01 | 0.923 | – | 0.968 | 0.623 | 0.542 | 0.405 | 0.641 | 0.614 | 0.495 | 0.616 | 0.417 | 0.503 | 0.608 | 0.421
HCC-15 | 0.775 | 0.72 | 0.507 | 0.781 | 0.469 | 0.983 | 0.883 | 0.615 | 0.773 | 0.251 | 0.81 | 0.782 | 0.786 | 0.987 | 0.678 | 0.732 | 0.611 | 0.638 | 0.765 | 0.396
HCC-44 | 0.965 | 0.943 | 0.669 | 0.973 | 0.248 | 0.77 | 0.655 | 0.466 | 0.577 | 0.218 | 1.14 | 1.07 | 1.16 | 1.14 | 1.14 | 0.751 | 0.5 | 0.642 | 0.464 | 0.383
